Measured values as given in ChEMBL document CHEMBL1201862, “PubChem BioAssay data set” (2004).
The source made the active and inactive calls.

Columns and labels:
[1] = molecular target: DNA damage-inducible transcript 3 protein (Mus musculus, UniProt P35639); type: functional, Cricetulus griseus
[2] = molecular target: T1, Coagulation factor XII (Homo sapiens, UniProt P00748); type: functional;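 also: activated factor XIIa alpha cleaving a fluorogenic AMC peptide substrate; inhibitor potency from loss of enzyme activity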
T1 sequence (P00748 20-372 limits assumed): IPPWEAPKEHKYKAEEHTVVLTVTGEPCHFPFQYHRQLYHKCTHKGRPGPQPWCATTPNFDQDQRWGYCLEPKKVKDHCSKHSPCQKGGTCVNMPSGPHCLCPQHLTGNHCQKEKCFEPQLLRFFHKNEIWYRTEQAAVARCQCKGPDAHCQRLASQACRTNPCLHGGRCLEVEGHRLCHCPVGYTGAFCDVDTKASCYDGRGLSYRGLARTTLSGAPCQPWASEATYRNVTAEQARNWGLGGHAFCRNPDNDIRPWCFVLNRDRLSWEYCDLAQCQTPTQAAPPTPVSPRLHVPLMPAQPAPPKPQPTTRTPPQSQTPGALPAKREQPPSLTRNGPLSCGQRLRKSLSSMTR
T1 sequence (P00748 373-615 limits assumed): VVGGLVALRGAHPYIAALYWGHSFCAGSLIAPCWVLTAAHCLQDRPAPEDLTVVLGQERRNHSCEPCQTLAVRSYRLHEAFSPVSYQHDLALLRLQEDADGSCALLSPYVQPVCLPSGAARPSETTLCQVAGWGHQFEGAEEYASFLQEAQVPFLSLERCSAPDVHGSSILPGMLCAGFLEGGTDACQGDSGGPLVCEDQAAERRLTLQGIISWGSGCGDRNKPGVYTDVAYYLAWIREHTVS

[3] = molecular target: G-protein coupled receptor 55 (Homo sapiens, UniProt Q9Y2T6); test: GPR55 agonists via beta-arrestin recruitment, primary screen, imaging, U2OS cells, beta-arrestin-GFP redistribution (AID 1961); type: functional
Chain of G-protein coupled receptor 55 (Q9Y2T6 whole entry): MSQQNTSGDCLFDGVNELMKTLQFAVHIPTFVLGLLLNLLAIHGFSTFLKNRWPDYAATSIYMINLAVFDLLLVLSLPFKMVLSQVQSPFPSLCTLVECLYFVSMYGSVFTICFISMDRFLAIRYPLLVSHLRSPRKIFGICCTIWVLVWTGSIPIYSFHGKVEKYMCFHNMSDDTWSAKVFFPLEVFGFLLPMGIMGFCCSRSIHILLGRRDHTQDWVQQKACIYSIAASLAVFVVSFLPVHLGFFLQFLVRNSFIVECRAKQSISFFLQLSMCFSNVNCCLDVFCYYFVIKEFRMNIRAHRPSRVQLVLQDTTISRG

[4] = molecular target: T1, Coagulation factor XII; test: FXIIa inhibitor potency, concentration-response, biochemical (AID 716); type: functional
[5] = system: Vero; test: West Nile virus CPE inhibition, SAR follow-up, cell-based, synthesized analogs (AID 2238); type: functional; conditions: Chlorocebus sabaeus
[6] = cytotoxicity toward NIH3T3 fibroblasts, dose response, counter-screen, cell-based, ATP luminescence, mouse fibroblasts (AID 2010); type: functional;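 also: cells exposed to compound for about 90 hours before reading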
[7] = system: Vero; test: Vero E6 cell cytotoxicity, SAR follow-up, cytotoxicity control for West Nile virus antiviral project, synthesized analogs (AID 2244); type: functional; conditions: Chlorocebus sabaeus
[8] = inhibitors of intracellular T. cruzi replication, confirmation, NIH3T3 host cells, beta-gal luminescence (AID 2044); type: functional, cell-based;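 also: intracellular parasites grown in NIH/3T3 mouse fibroblasts as host cells; luminescent beta-galactosidase reporter signal from transgenic T. cruzi replicating inside host cells; inhibitors lower the luminescence signal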
[9] = system: Vero; test: West Nile virus cytopathic effect inhibition, cell-based (AID 2419); type: functional; conditions: Chlorocebus sabaeus
[10] = A Cell Based Assay for the Identification of Probe candidate Compounds with Anti- Venezuelan Equine Encephalitis virus. [Related pubchem assays: 2409, 2419, 1621, 2238, 2405, 2024, 2065, 2402, 2414, 1635, 1650, 2244 ]; type: functional
[11] = system: Vero; test: cytotoxicity of synthesized analogs in Vero cells, SAR follow-up, cytotoxicity control for West Nile virus antiviral project, cell-based, set II (AID 2402); type: functional; conditions: Chlorocebus sabaeus
[12] = system: Vero; test: cytotoxicity of synthesized analogs in Vero 76, SAR follow-up, cytotoxicity control for West Nile virus antiviral project, Vero 76 cells (AID 2414); type: functional; conditions: Chlorocebus sabaeus

Chain of DNA damage-inducible transcript 3 protein (P35639 whole entry): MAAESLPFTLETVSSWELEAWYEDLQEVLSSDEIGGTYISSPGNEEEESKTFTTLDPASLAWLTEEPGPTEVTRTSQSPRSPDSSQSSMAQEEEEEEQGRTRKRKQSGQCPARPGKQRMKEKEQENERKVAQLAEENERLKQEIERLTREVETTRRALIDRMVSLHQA

With O=C(c1ccc(Cl)cc1)N1CCC(O)(CSc2ccc(Cl)cc2Cl)CC1 the “Absolute IC50 (CHOP)” value [1] was 10 µM.

With CCCCCCCCCCCC(=O)N1CC(=O)NC(=O)C1 the IC50 [2] was > 50 µM (inactive).

For CC(C)C[C@@H](CSc1ccc(Br)cc1)N1CCN(CC(C)C)CCC1=O, the EC50 [3] was 15.3 µM (inactive).

For CN(CC(=O)Nc1cccnc1)S(=O)(=O)c1cc(Cl)ccc1Cl, the IC50 [4] was > 50 µM (inactive).

For OC1c2cc(Br)ccc2N=C2CCCN21 (configuration not stated), the IC50 [5] was 25.7 µM (active), the EC50 [6] was > 60 µM (not active) and the CC50 [7] was > 80 µM (active). The EC50 [8] was 3.78 µM (active), the IC50 [9] was > 25 µM (active) and the IC50 [10] was 14.5 µM (active). The CC50 [11] was 35.5 µM (active) and the CC50 [12] was 71.5 µM (active).
